Consider four compounds from ChEMBL document CHEMBL1201862, “PubChem BioAssay data set” (2004).

For assay [1], the target named is Heat shock protein HSP 90-alpha (Homo sapiens, UniProt P07900). Nature of the assay: Luminescence-based dose response biochemical high throughput screening assay for inhibitors of the Heat Shock Protein 90 (HSP90). [Related pubchem assays: 1831 (Summary AID.), 1846 (Confirmation screen.), 1789 (Primary screen.)].
Another assay deals with T1, Protein skinhead-1 (Caenorhabditis elegans, UniProt P34707).
T1 sequence (P34707 whole entry): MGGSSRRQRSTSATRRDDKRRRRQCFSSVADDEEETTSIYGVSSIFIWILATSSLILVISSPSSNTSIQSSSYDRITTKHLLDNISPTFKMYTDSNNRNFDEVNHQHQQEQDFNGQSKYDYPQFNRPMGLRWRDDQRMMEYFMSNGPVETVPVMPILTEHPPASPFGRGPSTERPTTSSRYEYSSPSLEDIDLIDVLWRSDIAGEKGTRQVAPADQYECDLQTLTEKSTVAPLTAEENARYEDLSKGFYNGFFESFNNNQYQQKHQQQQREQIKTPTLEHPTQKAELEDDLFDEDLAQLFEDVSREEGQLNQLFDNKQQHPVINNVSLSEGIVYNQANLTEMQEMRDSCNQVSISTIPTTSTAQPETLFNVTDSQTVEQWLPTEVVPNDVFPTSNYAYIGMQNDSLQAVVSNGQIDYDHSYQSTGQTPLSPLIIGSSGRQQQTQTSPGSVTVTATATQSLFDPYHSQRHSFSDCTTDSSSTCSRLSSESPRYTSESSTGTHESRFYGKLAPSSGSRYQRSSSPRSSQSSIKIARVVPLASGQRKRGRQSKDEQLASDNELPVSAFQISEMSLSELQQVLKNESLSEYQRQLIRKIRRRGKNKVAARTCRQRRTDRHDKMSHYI
Type of assay: functional.

Assay [2] can be described thus: CellTiter-Glo luminescence survival assay, SW480 colon tumor line, concentration-response curve, half-maximal inhibitory concentration (AID 1117338). It is filed as functional.
Assay [3] can be described thus: SNU-C1 cell viability reduction, dose response, CellTiter-Glo luminescence (AID 1117323). It is filed as functional, cell-based.
Assay [4] in a line: Reduced DLD-1 viability, concentration-response, CellTiter-Glo luminescence (AID 1117352). Type of assay: functional.
Assay [5] is described as follows: HCT116 cell viability decrease, GSK3B pretreatment – CellTiter-Glo, IC50, dose response (AID 1117339). Type of assay: functional. Particulars: HCT-116.
Assay [6] is described as follows: RKO cell viability reduction, dose response, CellTiter-Glo luminescence (AID 1117322). Type of assay: functional.
Assay [7] in a line: cytotoxicity toward Colo320 cells – cell-based, CellTiter-Glo luminescence, IC50, dose response (AID 1117334). Particulars: COLO 320. It is filed as functional.
A short description of assay [8]: cytotoxicity toward HT-29 cells – cell-based, CellTiter-Glo luminescence, IC50, dose response (AID 1117330). It is filed as functional.
Assay [9] in a line: cytotoxicity toward HCT116 cells – cell-based, CellTiter-Glo luminescence, IC50, dose response (AID 1117332). It is filed as functional. As to conditions: HCT-116.
A short description of assay [10]: IC50 of insulin release inhibition, rat insulinoma INS-1E line, 5 mM glucose, cell-based (AID 1117331). Type of assay: functional.
Another assay deals with T2, Estrogen receptor (Homo sapiens, UniProt P03372).
T2 sequence (P03372 whole entry): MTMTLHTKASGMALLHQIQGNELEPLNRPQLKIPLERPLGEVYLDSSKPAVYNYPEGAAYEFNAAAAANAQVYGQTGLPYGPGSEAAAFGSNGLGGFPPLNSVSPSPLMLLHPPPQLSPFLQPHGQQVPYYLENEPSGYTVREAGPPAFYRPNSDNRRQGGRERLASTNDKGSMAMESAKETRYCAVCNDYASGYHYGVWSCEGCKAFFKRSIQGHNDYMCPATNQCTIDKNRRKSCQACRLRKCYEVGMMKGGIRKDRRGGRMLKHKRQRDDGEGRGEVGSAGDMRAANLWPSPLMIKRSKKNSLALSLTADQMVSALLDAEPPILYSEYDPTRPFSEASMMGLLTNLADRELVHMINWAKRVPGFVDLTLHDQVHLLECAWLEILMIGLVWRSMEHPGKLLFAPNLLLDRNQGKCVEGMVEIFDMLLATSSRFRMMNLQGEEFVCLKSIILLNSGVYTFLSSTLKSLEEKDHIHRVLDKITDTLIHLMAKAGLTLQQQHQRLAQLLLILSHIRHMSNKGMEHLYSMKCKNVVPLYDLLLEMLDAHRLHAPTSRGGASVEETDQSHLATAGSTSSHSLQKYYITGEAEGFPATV

Assay [11] is described as follows: viability loss in THP-1 monocytes – THP-1 cells, cytotoxicity control for Vif-APOBEC3G degradation inhibitor project, dose response (AID 1117359). It is filed as functional. As to conditions: THP-1.
The nature of assay [12]: HIV-1 Vif–A3G interaction blockers – biochemical, TR-FRET, GST-Vif 1-94, biotin-A3G peptide, dose response retest, primary screen (AID 1117319).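 Also: TR-FRET signal of purified GST-Vif binding a biotinylated A3G peptide; inhibitors lower the FRET signal by blocking Vif and A3G binding.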 Type of assay: functional.
The target of the next assay is Estrogen receptor beta (Homo sapiens, UniProt Q92731).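 Also: recombinant ER-beta bound to coactivator SRC1 peptide in presence of estradiol agonist; inhibitors block coactivator peptide binding and lower the FRET signal.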
Sequence of Estrogen receptor beta (Q92731 whole entry): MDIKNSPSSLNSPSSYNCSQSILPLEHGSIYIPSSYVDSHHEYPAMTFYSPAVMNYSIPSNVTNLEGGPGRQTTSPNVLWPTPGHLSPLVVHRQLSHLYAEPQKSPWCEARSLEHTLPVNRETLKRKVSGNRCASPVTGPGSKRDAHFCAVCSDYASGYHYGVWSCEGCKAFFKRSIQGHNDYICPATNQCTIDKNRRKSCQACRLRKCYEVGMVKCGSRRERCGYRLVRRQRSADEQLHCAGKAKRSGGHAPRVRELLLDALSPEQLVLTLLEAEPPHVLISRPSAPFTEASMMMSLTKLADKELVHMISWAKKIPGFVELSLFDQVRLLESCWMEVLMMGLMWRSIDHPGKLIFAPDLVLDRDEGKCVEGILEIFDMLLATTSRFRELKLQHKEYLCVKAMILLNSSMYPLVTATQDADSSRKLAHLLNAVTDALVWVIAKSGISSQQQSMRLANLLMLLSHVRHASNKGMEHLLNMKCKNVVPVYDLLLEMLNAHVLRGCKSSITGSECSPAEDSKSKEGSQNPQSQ

Activity calls are given as the source filed them. Rule as the data show it, for most assays here: active = IC50 of 5 µM or less and inactive = more.

As to `Cc1oc(-c2ccc(-c3ccccc3)cc2)nc1CN(C)C1CCOC1` (stereo not given), the half-inhibitory concentration (IC50) in assay [1] is 0.235 µM (active); at Protein skinhead-1, 13.7 µM (active).
With `COc1ccc2c(c1)c1c3n2CCN(C)C3=NCC1` [METRALINDOLE], the IC50 in assay [2], in assay [3], in assay [4], in [5], in assay [6] and in [7] was > 20 µM (inactive) each time. For the same compound, the IC50 in [8] and in assay [9] was > 20 µM (inactive) throughout.
For the compound `CN1CCN(CCC(=O)N2c3ccccc3Sc3ccc(C(F)(F)F)cc32)CC1` [FTORMETAZINE], in [10], the IC50 was > 11.1 µM (inactive).
On to `CSc1ccc(C2C(C#N)=C(N)Oc3c2ccc(=O)c2c(C)oc(C)c32)cc1` (stereo not given), for which the IC50 is > 50 µM (not active) against Estrogen receptor, > 53.2 µM (active) in [12] and > 50 µM (not active) on Estrogen receptor beta. For the same compound, in assay [11], the 50% cytotoxic concentration (CC50) is > 40 µM (active).
